# US9265248B2, “Water soluble antimicrobial composition” (Medivators Inc., priority 2011, dated 2016)
# Test system: bacteria
# Assay: Residual test on coated carriers, 10 minute contact time (organism not named)
# Assay type: cell-based
# Conditions: average over all inocula of the sample
# From the text: Solutions of examples 12-01 to 12-05 were used to coat polycarbonate or glass carriers. Once dried, bacteria were inoculated on top of the coating and a log reduction of bacteria was obtained after a certain contact time. CFU=Colony Forming Units, TNTC=Too numerous to count, BCP=benzalkonium chloride powder, ThP=thymol powder
substance,measurement,value
alkyldimethylbenzylammonium chloride [0.3 wt % benzalkonium chloride control],Average Log 10 Reduction,0.5
